Test in all cases: MIC, broth microdilution (NCCLS)
Common to all, as to format: cell-based
On the technique in general: In broth dilution the organism is exposed to a series of concentrations in liquid medium.

Experiment [1] has as its system Streptococcus pneumoniae Stpn_49619. The settings on record: Table 10, Strain ID M (Table 8): Streptococcus pneumoniae Stpn_49619. In short, it runs like this:
(§1)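 NCCLS broth microdilution with 2-fold serial drug dilutions (methanol stocks diluted in water); inoculum 3×10^5–7×10^5 CFU/ml in CAMHB, with 2-5% lysed horse blood for S. pneumoniae. Incubation 18-24 h at 35° C., ambient air, except S. pneumoniae (5-10% CO2). MIC is lowest concentration preventing visible growth.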

For experiment [2], the system named is Haemophilus influenzae Hain_49247. To be noted: Table 10, Strain ID H (Table 8): Haemophilus influenzae Hain_49247; unit assumed.
Experiment [3] concerns Staphylococcus epidermidis Step_f50654. To be noted: Table 10, Strain ID D (Table 8): Staphylococcus epidermidis Step_f50654; in µg/mL (unit assumed). In short, it runs like this:
as §1

In experiment [4] the test system is Staphylococcus aureus Stau_29213. To be noted: Table 10, Strain ID A (Table 8): Staphylococcus aureus Stau_29213; in µg/mL (unit assumed). A digest of the protocol: as §1
Experiment [5] has as its system Enterococcus faecalis Enfa_29212. To be noted: Table 10, Strain ID E (Table 8): Enterococcus faecalis Enfa_29212. A digest of the protocol:
as §1

Experiment [6] has as its system Staphylococcus epidermidis Step_14990. The settings on record: Table 10, Strain ID C (Table 8): Staphylococcus epidermidis Step_14990; in µg/mL (unit assumed). In short, it runs like this: as §1
Experiment [7] has as its system Streptococcus pneumoniae Stpn_Mef S 3427. The settings on record: Table 10, Strain ID Q (Table 8): Streptococcus pneumoniae Stpn_Mef S 3427; in µg/mL (unit assumed). In short, it runs like this:
as §1

Experiment [8] concerns Streptococcus pneumoniae Stpn_Erm S 4297. To be noted: Table 10, Strain ID R (Table 8): Streptococcus pneumoniae Stpn_Erm S 4297. A digest of the protocol:
as §1

Experiment [9] relates to Streptococcus pneumoniae Stpn_280-962. To be noted: Table 10, Strain ID O (Table 8): Streptococcus pneumoniae Stpn_280-962. In short, it runs like this: as §1
Experiment [10] relates to Streptococcus pneumoniae Stpn_Mef 5654. To be noted: Table 10, Strain ID P (Table 8): Streptococcus pneumoniae Stpn_Mef 5654; in µg/mL (unit assumed). In short, it runs like this:
as §1

In experiment [11] the test system is Streptococcus pyogenes Stpy_8668. The settings on record: Table 10, Strain ID G (Table 8): Streptococcus pyogenes Stpy_8668. A digest of the protocol: as §1
Experiment [12] deals with Streptococcus pneumoniae Stpn_297-749. The settings on record: Table 10, Strain ID N (Table 8): Streptococcus pneumoniae Stpn_297-749. A digest of the protocol: as §1
Experiment [13] has as its system Haemophilus influenzae Hain_953460299-3. The settings on record: Table 10, Strain ID K (Table 8): Haemophilus influenzae Hain_953460299-3; in µg/mL (unit assumed). The method, then: (§2) Strains. The bacterial isolates listed in Table 8 were cultivated from −70° C. frozen stocks by two consecutive overnight passages (P1, P2) at 35° C. on 5% blood agar (Remel, Lenexa, Kans.). Chocolate agar (Remel) is used for Haemophilus influenzae. H. influenzae and Streptococcus pneumoniae are incubated in 5-10% CO2
(§3) Drug Stock Preparation. To determine the amount of solvent to be used to give the desired final concentration, the formula “weight obtained in mg/final concentration in mg/ml” will be used. It will give the amount of solvent in ml needed to be added to give the desired concentration. For example, if 2.5 mg/ml is the desired concentration and the weight of compound is 13.7 mg, then the amount of solvent to be added is […]. Methanol is used as the solvent to dissolve the test compounds. Further dilution of stock is done in sterile, deionized water. Drug stocks are kept frozen at −70° C., protected from light.
(§4) Susceptibility Testing. MICs are determined by the broth microdilution method in accordance with the NCCLS guidelines. In brief, organism suspensions are adjusted to a 0.5 McFarland standard to yield a final inoculum between 3×10^5 and 7×10^5 CFU/ml. Drug dilutions and inocula are made in sterile, cation adjusted Mueller-Hinton Broth (CAMHB) (Remel) for all but S. pneumoniae [CAMHB with 2-5% lysed horse blood (Remel)] and H. influenzae [Haemophilus Test Medium (Remel)]. An inoculum volume of 100 μl is added to wells containing 100 μl of broth with 2-fold serial dilutions of drug. All inoculated microdilution trays are incubated in ambient air at 35° C. for 18-24 hours, except for S. pneumoniae, and H. influenzae (both at 5-10% CO2).
(§5) Following appropriate incubation, the MIC is determined and the MIC is defined as the lowest concentration of the drug that prevented visible growth. […] Antibacterial activity of representative compounds of the invention were compared against telitromycin.

Experiment [14] relates to Haemophilus influenzae Hain_960730503-3. To be noted: Table 10, Strain ID I (Table 8): Haemophilus influenzae Hain_960730503-3; in µg/mL (unit assumed). The method, then:
as §2, §3, §4, §5

The test system of experiment [15] is Haemophilus influenzae Hain_960820544-3. To be noted: Table 10, Strain ID J (Table 8): Haemophilus influenzae Hain_960820544-3; in µg/mL (unit assumed). The protocol:
as §2, §3, §4, §5

The subject of experiment [16] is Staphylococcus aureus Stau_33591. The settings on record: Table 10, Strain ID B (Table 8): Staphylococcus aureus Stau_33591; unit assumed. The protocol:
as §2, §3, §4, §5

The test system of experiment [17] is Enterococcus faecalis Enfa_bc 11148-2. To be noted: Table 10, Strain ID F (Table 8): Enterococcus faecalis Enfa_bc 11148-2; in µg/mL (unit assumed). The protocol: as §2, §3, §4, §5
Experiment [18] relates to Haemophilus influenzae Hain_2762. The settings on record: Table 10, Strain ID L (Table 8): Haemophilus influenzae Hain_2762; in µg/mL (unit assumed). The protocol:
as §2, §3, §4, §5

Converted amounts (≈) assume the structure as drawn. Where only a bound is given, the exact number is not on record here.

`CC[C@H]1OC(=O)[C@H](C)C(=O)[C@H](C)[C@@H](OC2O[C@H](C)C[C@H](N(C)C)[C@H]2O)[C@@](C)(OC)C[C@@H](C)C(=O)[C@H](C)[C@H]2N(CCCCn3cnc(-c4ccc(C)nc4)c3)C(=O)O[C@]12CC` (stereo partly drawn) [XIII]: the MIC entry in [1] was “=0.05”; in experiment [2], 6.25 µg/mL (≈ 7.44 µM); in [3], 0.4; in experiment [4] it was 0.4; in experiment [5] (in µg/mL (unit assumed)) it was 0.2; in experiment [6], 0.2. Further, the MIC is 0.2 in experiment [7]; 0.2 µg/mL (≈ 0.238 µM) in [8] (unit assumed); “=0.05” in [9]; 0.78 in experiment [10]; “=0.05” in experiment [11]; “=0.05” in [12]. For the same molecule, the MIC in experiment [13] is 6.25; in experiment [14], 6.25; in experiment [15] it was 6.25; in [16], > 50 µg/mL; in experiment [17], 3.13; in experiment [18], 1.56.

As for `C=C[C@]12OC(=O)N(CCCCn3cnc(-c4ccc(F)nc4)c3)[C@@H]1[C@@H](C)C(=O)[C@H](C)C[C@](C)(OC)[C@H](OC1O[C@H](C)C[C@H](N(C)C)[C@H]1O)[C@@H](C)C(=O)[C@@H](C)C(=O)O[C@@H]2CC` (stereo partly drawn) [XIX], the MIC entry in [1] is “=0.05”; in [2] it was 3.13 µg/mL (≈ 3.72 µM); in experiment [3], 0.1; in experiment [4] it was 0.1; in experiment [5] (in µg/mL (unit assumed)), 0.1; in [6], 0.1. Also, the MIC in experiment [7] is listed as 0.1; in [8], “=0.05”; in experiment [9] it was “=0.05”; in experiment [10], 0.4; in [11], “=0.05”; in experiment [12], “=0.05”. Moreover, the MIC is 6.25 in [13]; 12.5 in experiment [14]; 6.25 in experiment [15]; > 50 µg/mL in experiment [16]; 0.4 in [17]; 1.56 in experiment [18].

Turning to `CC[C@H]1OC(=O)[C@H](C)C(=O)[C@H](C)[C@@H](OC2O[C@H](C)C[C@H](N(C)C)[C@H]2O)[C@@](C)(OC)C[C@@H](C)C(=O)[C@H](C)[C@H]2N(CCCCn3cnc(-c4ccc(OC)nc4)c3)C(=O)O[C@]12CC` (stereo partly drawn) [XVII], the MIC entry in [1] was “=0.05”; in experiment [2], 6.25 µg/mL (≈ 7.3 µM); in [3], 0.2; in experiment [4], 0.2; in experiment [5] (in µg/mL (unit assumed)), 0.1; in experiment [6] it was 0.4. Also, the MIC is 0.2 in experiment [7]; 0.2 µg/mL (≈ 0.234 µM) in experiment [8] (unit assumed); “=0.05” in experiment [9]; 0.78 in experiment [10]; “=0.05” in [11]; “=0.05” in experiment [12]. Further, the MIC in [13] was 12.5; in experiment [14] it was 6.25; in [15] it was 12.5; in experiment [16], > 50 µg/mL; in [17], 3.13; in experiment [18], 1.56.

As to `CC[C@H]1OC(=O)[C@H](C)C(=O)[C@H](C)[C@@H](OC2O[C@H](C)C[C@H](N(C)C)[C@H]2O)[C@@](C)(OC)C[C@@H](C)C(=O)[C@H](C)[C@H]2N(CCCCn3cnc(-c4ccc(F)nc4)c3)C(=O)O[C@]12CC` (stereo partly drawn) [XV], the MIC entry in [1] is “=0.05”; in [2], 3.13 µg/mL (≈ 3.71 µM); in experiment [3], 0.2; in [4], 0.4; in experiment [5] (in µg/mL (unit assumed)), 0.1; in experiment [6], 0.2. Further, the MIC in experiment [7] is 0.1; in [8] (unit assumed) it was 0.1 µg/mL (≈ 0.118 µM); in [9] it was “=0.05”; in [10], 0.4; in experiment [11], “=0.05”; in [12] it was “=0.05”. Moreover, the MIC in experiment [13] is 3.13; in experiment [14], 6.25; in experiment [15], 6.25; in experiment [16], > 50 µg/mL; in experiment [17], 0.78; in experiment [18], 0.78.

As for `C=C[C@]12OC(=O)N(CCCCn3cnc(-c4ccc(OCC)nc4)c3)[C@@H]1[C@@H](C)C(=O)[C@H](C)C[C@](C)(OC)[C@H](OC1O[C@H](C)C[C@H](N(C)C)[C@H]1O)[C@@H](C)C(=O)[C@@H](C)C(=O)O[C@@H]2CC` (stereo partly drawn) [XXII], the MIC entry in [1] was “=0.05”; in experiment [2], 6.25 µg/mL (≈ 7.2 µM); in [3] it was 0.4; in experiment [4], 0.4; in experiment [5] (in µg/mL (unit assumed)), 0.2; in experiment [6] it was 0.4. For the same molecule, the MIC in experiment [7] is 0.78; in [8] (unit assumed), 1.56 µg/mL (≈ 1.8 µM); in experiment [9], “=0.05”; in [10] it was 0.78; in experiment [11] (unit assumed), 0.1 µg/mL (≈ 0.115 µM); in experiment [12] it was “=0.05”. Further, the MIC in experiment [13] is 12.5; in [14], 6.25; in [15], 3.13; in experiment [16], > 50 µg/mL; in experiment [17], 25; in experiment [18], 1.56.

For `CC[C@H]1OC(=O)[C@H](C)C(=O)[C@H](C)[C@@H](OC2O[C@H](C)C[C@H](N(C)C)[C@H]2O)[C@@](C)(OC)C[C@@H](C)C(=O)[C@H](C)[C@H]2N(CCCCn3cnc(-c4ccc(Cl)nc4)c3)C(=O)O[C@]12CC` (stereo partly drawn) [XXI], the MIC result in [1] was “=0.05”; in experiment [2] it was 3.13 µg/mL (≈ 3.64 µM); in [3], 0.1; in experiment [4], 0.1; in experiment [5], “=0.05”; in experiment [6], 0.1. Further, the MIC in [7] was 0.2; in [8] (unit assumed), 0.1 µg/mL (≈ 0.116 µM); in [9], “=0.05”; in experiment [10] it was 0.78; in experiment [11], “=0.05”; in experiment [12] it was “=0.05”. Moreover, the MIC in experiment [13] is 6.25; in experiment [14], 6.25; in [15], 6.25; in experiment [16], > 50 µg/mL; in experiment [17] it was 1.56; in experiment [18], 0.78.

The values above are taken from patent publication US7332476B2, “Pyridyl substituted ketolide antibiotics” (Novartis AG, priority 2003, dated 2008).
